Measured values published in US11066443B2 (Hoffmann-La Roche Inc., priority 2017, dated 2021).

The molecules below were run on P. aeruginosa NCTC11454 (assay: Antimicrobial susceptibility testing: 50% growth inhibitory concentration (IC50) determination). Details: Pseudomonas aeruginosa, Iso-Sensitest broth, OD 600 nm every 20 minutes over 16h, growth inhibition during logarithmic growth.
Format: cell-based
Procedure: The in vitro antimicrobial activity of the compounds was alternatively determined according to the following procedure: The assay used a 10-points Iso-Sensitest broth medium to measure quantitatively the in vitro activity of the compounds against P. aeruginosa NCTC11454. Stock compounds in DMSO were serially twofold diluted (e.g. range from 50 to 0.097 μM final concentration) in 384 wells microtiter plates and inoculated with 49 μl the bacterial suspension in Iso-Sensitest medium to have a final cell concentration of ˜5×10^(5) CFU/ml in a final volume/well of 50 ul/well. Microtiter plates were incubated at 35±2° C. Bacterial cell growth was determined with the measurement of optical density at λ=600 nm each 20 minutes over a time course of 16h. Growth inhibition was calculated during the logarithmic growth of the bacterial cells with determination of the concentration inhibiting 50% (IC50) and 90% (IC90) of the growth. Table 2 provides the 50% growth inhibitory concentrations (IC50) in micromoles per liter of the compounds of present invention obtained against P. aeruginosa NCTC11454.
In the case of `CN1C(=O)[C@H](CCCCN)NC(=O)[C@H](CCCN)NCc2ccccc2Sc2ccc(Cl)cc2CNC(=O)[C@@H]1Cc1c[nH]c2ccccc12` [Example 1, (12S,15S,18S)-15-(4-Amino-butyl)-18-(3-amino-propyl)-6-chloro-12-(1H-indol-3-ylmethyl)-13-methyl-2-thia-10,13,16,19-tetraaza-tricyclo[19.4.0.0*3,8*]pentacosa-1(21),3,5,7,22,24-hexaene-11,14,17-trione], the IC50 is reported as 32 µM.
Work on `CN1C(=O)[C@H](CCCCN)NC(=O)[C@H](CCCN)NCc2ccccc2Sc2cc(C(F)(F)F)ccc2CNC(=O)[C@@H]1Cc1c[nH]c2ccccc12` [Example 4, (12S,15S,18S)-15-(4-Amino-butyl)-18-(3-amino-propyl)-12-(1H-indol-3-ylmethyl)-13-methyl-5-trifluoromethyl-2-thia-10,13,16,19-tetraaza-tricyclo[19.4.0.0*3,8*]pentacosa-1(21),3,5,7,22,24-hexaene-11,14,17-trione] yielded an IC50 of 12.6 µM.
`CN1C(=O)[C@H](CCCCN)NC(=O)[C@H](CCCN)NCc2ccccc2Sc2ccccc2CNC(=O)[C@@H]1Cc1c[nH]c2cc(Cl)ccc12` [Example 5, (12S,15S,18S)-15-(4-Amino-butyl)-18-(3-amino-propyl)-12-(6-chloro-1H-indol-3-ylmethyl)-13-methyl-2-thia-10,13,16,19-tetraaza-tricyclo[19.4.0.0*3,8*]pentacosa-1(21),3,5,7,22,24-hexaene-11,14,17-trione] was tested, and the IC50 was 24.4 µM.
`CN1C(=O)[C@H](CCCCN)NC(=O)[C@H](CCCN)NCc2ccccc2Sc2ccc(Cl)cc2CNC(=O)[C@@H]1Cc1cn(C)c2ccccc12` [Example 6, (12S,15S,18S)-15-(4-Amino-butyl)-18-(3-amino-propyl)-6-chloro-13-methyl-12-(1-methyl-1H-indol-3-ylmethyl)-2-thia-10,13,16,19-tetraaza-tricyclo[19.4.0.0*3,8*]pentacosa-1(21),3,5,7,22,24-hexaene-11,14,17-trione] showed an IC50 of 22.7 µM.
In the case of `CN1C(=O)[C@H](CCCCN)NC(=O)[C@H](CCCN)NCc2ccccc2Sc2ccc(Cl)cc2CNC(=O)[C@@H]1Cc1c[nH]c2cc(Cl)ccc12` [Example 7, (12S,15S,18S)-15-(4-Amino-butyl)-18-(3-amino-propyl)-6-chloro-12-(6-chloro-1H-indol-3-ylmethyl)-13-methyl-2-thia-10,13,16,19-tetraaza-tricyclo[19.4.0.0*3,8*]pentacosa-1(21),3,5,7,22,24-hexaene-11,14,17-trione], the IC50 is reported as 7.62 µM.
Work on `CN1C(=O)[C@H](CCCCN)NC(=O)[C@H](CCCN)NCc2ccccc2Sc2ccc(Cl)cc2CNC(=O)[C@@H]1Cc1cn(C)c2cc(Cl)ccc12` [Example 8, (12S,15S,18S)-15-(4-Amino-butyl)-18-(3-amino-propyl)-6-chloro-12-(6-chloro-1-methyl-1H-indol-3-ylmethyl)-13-methyl-2-thia-10,13,16,19-tetraaza-tricyclo[19.4.0.0*3,8*]pentacosa-1(21),3,5,7,22,24-hexaene-11,14,17-trione] yielded an IC50 of 13.2 µM.
`CN1C(=O)[C@H](CCCCN)NC(=O)[C@H](CCCN)NCc2ccccc2Sc2ccc(Cl)c(Cl)c2CNC(=O)[C@@H]1Cc1c[nH]c2ccccc12` [Example 9, (12S,15S,18S)-15-(4-Amino-butyl)-18-(3-amino-propyl)-6,7-dichloro-12-(1H-indol-3-ylmethyl)-13-methyl-2-thia-10,13,16,19-tetraaza-tricyclo[19.4.0.0*3,8*]pentacosa-1(25),3,5,7,21,23-hexaene-11,14,17-trione] showed an IC50 of 24.5 µM.
Work on `CN1C(=O)[C@H](CCCCN)NC(=O)[C@H](CCCN)NCc2ccccc2Sc2c(Cl)ccc(C(F)(F)F)c2CNC(=O)[C@@H]1Cc1c[nH]c2ccccc12` [Example 10, (12S,15S,18S)-15-(4-Amino-butyl)-18-(3-amino-propyl)-4-chloro-12-(1H-indol-3-ylmethyl)-13-methyl-7-trifluoromethyl-2-thia-10,13,16,19-tetraaza-tricyclo[19.4.0.0*3,8*]pentacosa-1(25),3,5,7,21,23-hexaene-11,14,17-trione] yielded an IC50 of 10.7 µM.
With `Cc1cc(Cl)cc2c1Sc1ccccc1CN[C@@H](CCCN)C(=O)N[C@@H](CCCCN)C(=O)N(C)[C@@H](Cc1c[nH]c3ccccc13)C(=O)NC2` [Example 14, (12S,15S,18S)-15-(4-Amino-butyl)-18-(3-amino-propyl)-6-chloro-12-(1H-indol-3-ylmethyl)-4,13-dimethyl-2-thia-10,13,16,19-tetraaza-tricyclo[19.4.0.0*3,8*]pentacosa-1(25),3,5,7,21,23-hexaene-11,14,17-trione] the IC50 was 24.3 µM.
`CN1C(=O)[C@H](CCCCN)NC(=O)[C@H](CCCN)NCc2cccnc2Sc2c(cc(-c3ccccc3)cc2C(F)(F)F)CNC(=O)[C@@H]1Cc1c[nH]c2ccccc12` [Example 22, (11S,14S,17S)-14-(4-Amino-butyl)-11-(3-amino-propyl)-17-(1H-indol-3-ylmethyl)-16-methyl-23-phenyl-25-trifluoromethyl-2-thia-4,10,13,16,19-pentaaza-tricyclo[19.4.0.0*3,8*]pentacosa-1(25),3,5,7,21,23-hexaene-12,15,18-trione] showed an IC50 of 10.1 µM.
In the case of `CN1C(=O)[C@H](CCCCN)NC(=O)[C@H](CCCN)NCc2ncccc2Sc2c(Cl)cc(C(F)(F)F)cc2CNC(=O)[C@@H]1Cc1c[nH]c2ccccc12` [Example 24, (11S,14S,17S)-14-(4-Amino-butyl)-11-(3-amino-propyl)-25-chloro-17-(1H-indol-3-ylmethyl)-16-methyl-23-trifluoromethyl-2-thia-7,10,13,16,19-pentaaza-tricyclo[19.4.0.0*3,8*]pentacosa-1(25),3,5,7,21,23-hexaene-12,15,18-trione], the IC50 is reported as 22.4 µM.
Molecule `NCCCC[C@@H]1NC(=O)[C@@H](CCCN)NCc2cccnc2Sc2c(ccc(-c3ccccc3)c2Cl)CNC(=O)[C@H](Cc2c[nH]c3ccccc23)NC1=O` [Example 25, (11R,14S,17S)-14-(4-Amino-butyl)-11-(3-amino-propyl)-25-chloro-17-(1H-indol-3-ylmethyl)-24-phenyl-2-thia-4,10,13,16,19-pentaaza-tricyclo[9.4.0.0*3,8*]pentacosa-1(25),3,5,7,21,23-hexaene-12,15,18-trione] has an IC50 of 25.3 µM.
For `NCCCC[C@@H]1NC(=O)[C@H](CCCN)NCc2cccnc2Sc2c(ccc(-c3ccccc3)c2Cl)CNC(=O)[C@H](Cc2c[nH]c3ccccc23)NC1=O` [Example 26, (11S,14S,17S)-14-(4-Amino-butyl)-11-(3-amino-propyl)-25-chloro-17-(1H-indol-3-ylmethyl)-24-phenyl-2-thia-4,10,13,16,19-pentaaza-tricyclo[9.4.0.0*3,8*]pentacosa-1(25),3,5,7,21,23-hexaene-12,15,18-trione], the IC50 was 23.7 µM.
In the case of `CN1C(=O)[C@H](CCCCN)NC(=O)[C@@H](CCCN)NCc2cccnc2Sc2c(ccc(-c3ccccc3)c2Cl)CNC(=O)[C@@H]1Cc1c[nH]c2ccccc12` [Example 27, (11R,14S,17S)-14-(4-Amino-butyl)-11-(3-amino-propyl)-25-chloro-17-(1H-indol-3-ylmethyl)-16-methyl-24-phenyl-2-thia-4,10,13,16,19-pentaaza-tricyclo[19.4.0.0*3,8*]pentacosa-1(25),3,5,7,21,23-hexaene-12,15,18-trione], the IC50 is reported as 11.3 µM.
`CN1C(=O)[C@H](CCCN)NC(=O)[C@H](CCCN)NCc2ccccc2Sc2c(Cl)cc(Cl)cc2CNC(=O)[C@@H]1Cc1c[nH]c2ccccc12` [Example 30, (12S,15S,18S)-15,18-Bis-(3-amino-propyl)-4,6-dichloro-12-(1H-indol-3-ylmethyl)-13-methyl-2-thia-10,13,16,19-tetraaza-tricyclo[19.4.0.0*3,8*]pentacosa-1(25),3,5,7,21,23-hexaene-11,14,17-trione] was tested, and the IC50 was 11.1 µM.
For `CN1C(=O)[C@H](CCCCN)NC(=O)[C@H](CCCN)NCc2cccnc2Sc2c(Cl)ccc(C(F)(F)F)c2CNC(=O)[C@@H]1Cc1c[nH]c2ccc(Cl)cc12` [Example 31, (11S,14S,17S)-14-(4-Amino-butyl)-11-(3-amino-propyl)-25-chloro-17-(5-chloro-1H-indol-3-ylmethyl)-16-methyl-22-trifluoromethyl-2-thia-4,10,13,16,19-pentaaza-tricyclo[19.4.0.0*3,8*]pentacosa-1(25),3,5,7,21,23-hexaene-12,15,18-trione], the IC50 was 25.4 µM.
With `CN1C(=O)[C@H](CCCCN)NC(=O)[C@H](CCCN)NCc2ccccc2Sc2c(Cl)cc(-c3ccccc3)cc2CNC(=O)[C@@H]1Cc1c[nH]c2ccccc12` [Example 32, (12S,15S,18S)-15-(4-Amino-butyl)-18-(3-amino-propyl)-4-chloro-12-(1H-indol-3-ylmethyl)-13-methyl-6-phenyl-2-thia-111,13,16,19-tetraaza-tricyclo[19.4.0.0*3,8*]pentacosa-1(25),3,5,7,21,23-hexaene-11,14,17-trione] the IC50 was 7.15 µM.
Molecule `CN1C(=O)[C@H](CCCCN)NC(=O)[C@H](CCCN)NCc2ccccc2Sc2c(Cl)cc(-c3ccccc3Cl)cc2CNC(=O)[C@@H]1Cc1c[nH]c2ccccc12` [Example 33, (12S,15S,18S)-15-(4-Amino-butyl)-18-(3-amino-propyl)-4-chloro-6-(2-chloro-phenyl)-12-(1H-indol-3-ylmethyl)-13-methyl-2-thia-10,13,16,19-tetraaza-tricyclo[19.4.0.0*3,8*]pentacosa-1(25),3,5,7,21,23-hexaene-11,14,17-trione] has an IC50 of 9.02 µM.
